According to the kinase profiling compilation of Christmann-Franck et al. (2016):

Columns and labels:
Conditions in all cases: compound 10.0 µM
CDK4 CCND1 (human) = CDK4 CCND1 (human) (UniProt P11802+P24385)
CDK5 CDK5R1 p25 (human) = CDK5 CDK5R1 p25 (human) (UniProt Q15078+Q00535)
MAPK13 (human) = MAPK13 (human) (UniProt O15264)
MKNK1 (human) = MKNK1 (human) (UniProt Q9BUB5)
GRK6 (human) = GRK6 (human) (UniProt P43250)
LYN (human) = LYN (human) (UniProt P07948)
DYRK1A (human) = DYRK1A (human) (UniProt Q13627)
ABL1 (human) = ABL1 (human) (UniProt P00519)
EPHB1 (human) = EPHB1 (human) (UniProt P54762)
MARK4 (human) = MARK4 (human) (UniProt Q96L34)
EPHA7 (human) = EPHA7 (human) (UniProt Q15375)
GRK7 (human) = GRK7 (human) (UniProt Q8WTQ7)
MUSK (human) = MUSK (human) (UniProt O15146)
EPHA4 (human) = EPHA4 (human) (UniProt P54764)
FLT3 (human) = FLT3 (human) (UniProt P36888)
MARK2 (human) = MARK2 (human) (UniProt Q7KZI7)
PLK2 (human) = PLK2 (human) (UniProt Q9NYY3)
PRKCB1 (human) = PRKCB1 (human) (UniProt P05771)
AXL (human) = AXL (human) (UniProt P30530)
MST1R (human) = MST1R (human) (UniProt Q04912)
PDPK1 (human) = PDPK1 (human) (UniProt O15530)
MAP3K3 (human) = MAP3K3 (human) (UniProt Q99759)
PRKACA (human) = PRKACA (human) (UniProt P17612)
PIM3 (human) = PIM3 (human) (UniProt Q86V86)
PAK3 (human) = PAK3 (human) (UniProt O75914)
FGFR1 (human) = FGFR1 (human) (UniProt P11362)
SYK (human) = SYK (human) (UniProt P43405)
GRK5 (human) = GRK5 (human) (UniProt P34947)
SIK2 (human) = SIK2 (human) (UniProt Q9H0K1)
SGK2 (human) = SGK2 (human) (UniProt Q9HBY8)
SGK1 (human) = SGK1 (human) (UniProt O00141)
PRKCZ (human) = PRKCZ (human) (UniProt Q05513)
CSNK1E (human) = CSNK1E (human) (UniProt P49674)
VRK1 (human) = VRK1 (human) (UniProt Q99986)
MST4 (human) = MST4 (human) (UniProt Q9P289)
STK24 (human) = STK24 (human) (UniProt Q9Y6E0)
MARK3 (human) = MARK3 (human) (UniProt P27448)
CDK9 CCNK (human) = CDK9 CCNK (human) (UniProt P50750+O75909)
ALK (human) = ALK (human) (UniProt Q9UM73)
HIPK4 (human) = HIPK4 (human) (UniProt Q8NE63)
CSNK2A2 (human) = CSNK2A2 (human) (UniProt P19784)
MYO3B (human) = MYO3B (human) (UniProt Q8WXR4)
STK16 (human) = STK16 (human) (UniProt O75716)
CSNK1G3 (human) = CSNK1G3 (human) (UniProt Q9Y6M4)

PLK2 (human), sequence (Q9NYY3 whole entry, looked up): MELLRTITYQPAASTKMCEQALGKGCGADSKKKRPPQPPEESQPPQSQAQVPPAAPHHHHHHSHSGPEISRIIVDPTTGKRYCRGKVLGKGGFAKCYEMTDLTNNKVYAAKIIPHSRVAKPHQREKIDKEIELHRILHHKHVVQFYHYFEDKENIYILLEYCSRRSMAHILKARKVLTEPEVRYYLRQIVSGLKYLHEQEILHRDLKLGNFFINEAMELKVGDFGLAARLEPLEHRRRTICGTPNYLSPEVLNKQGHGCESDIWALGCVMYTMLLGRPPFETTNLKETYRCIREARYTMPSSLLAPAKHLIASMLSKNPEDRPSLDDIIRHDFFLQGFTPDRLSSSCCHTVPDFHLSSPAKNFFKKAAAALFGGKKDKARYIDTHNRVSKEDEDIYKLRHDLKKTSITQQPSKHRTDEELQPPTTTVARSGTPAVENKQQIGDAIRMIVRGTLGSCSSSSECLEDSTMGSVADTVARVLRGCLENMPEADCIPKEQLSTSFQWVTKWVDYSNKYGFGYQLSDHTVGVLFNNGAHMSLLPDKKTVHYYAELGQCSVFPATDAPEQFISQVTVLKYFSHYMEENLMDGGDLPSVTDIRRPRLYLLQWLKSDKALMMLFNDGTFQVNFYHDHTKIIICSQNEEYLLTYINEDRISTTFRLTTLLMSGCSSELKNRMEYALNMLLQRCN
SGK2 (human), sequence (Q9HBY8 whole entry, looked up): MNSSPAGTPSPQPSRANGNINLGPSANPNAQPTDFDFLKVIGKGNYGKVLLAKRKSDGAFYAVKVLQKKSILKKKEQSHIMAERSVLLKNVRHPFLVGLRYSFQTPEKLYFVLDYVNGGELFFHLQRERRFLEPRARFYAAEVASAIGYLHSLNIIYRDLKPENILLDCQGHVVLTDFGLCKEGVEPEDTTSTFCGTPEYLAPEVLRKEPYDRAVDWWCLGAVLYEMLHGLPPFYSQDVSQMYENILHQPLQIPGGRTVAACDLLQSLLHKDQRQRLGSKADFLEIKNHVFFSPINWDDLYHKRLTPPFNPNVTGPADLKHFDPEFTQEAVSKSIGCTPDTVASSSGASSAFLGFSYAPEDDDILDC
MAP3K3 (human), sequence (Q99759 whole entry, looked up): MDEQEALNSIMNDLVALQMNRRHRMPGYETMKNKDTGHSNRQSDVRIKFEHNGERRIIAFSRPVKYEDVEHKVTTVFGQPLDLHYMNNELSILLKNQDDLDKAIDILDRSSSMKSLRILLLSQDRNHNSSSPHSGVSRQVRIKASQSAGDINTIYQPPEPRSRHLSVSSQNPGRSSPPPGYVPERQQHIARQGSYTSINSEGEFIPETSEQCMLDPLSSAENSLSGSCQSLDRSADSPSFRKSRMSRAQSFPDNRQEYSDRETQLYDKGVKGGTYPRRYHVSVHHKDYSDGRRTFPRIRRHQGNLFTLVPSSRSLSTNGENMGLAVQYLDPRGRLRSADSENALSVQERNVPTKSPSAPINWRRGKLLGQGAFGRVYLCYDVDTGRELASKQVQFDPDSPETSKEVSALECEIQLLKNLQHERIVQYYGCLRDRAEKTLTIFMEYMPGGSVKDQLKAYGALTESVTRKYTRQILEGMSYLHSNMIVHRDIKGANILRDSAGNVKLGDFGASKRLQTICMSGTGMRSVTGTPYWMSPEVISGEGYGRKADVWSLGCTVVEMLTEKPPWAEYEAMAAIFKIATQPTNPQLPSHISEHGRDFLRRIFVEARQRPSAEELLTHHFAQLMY
STK16 (human), sequence (O75716 whole entry, looked up): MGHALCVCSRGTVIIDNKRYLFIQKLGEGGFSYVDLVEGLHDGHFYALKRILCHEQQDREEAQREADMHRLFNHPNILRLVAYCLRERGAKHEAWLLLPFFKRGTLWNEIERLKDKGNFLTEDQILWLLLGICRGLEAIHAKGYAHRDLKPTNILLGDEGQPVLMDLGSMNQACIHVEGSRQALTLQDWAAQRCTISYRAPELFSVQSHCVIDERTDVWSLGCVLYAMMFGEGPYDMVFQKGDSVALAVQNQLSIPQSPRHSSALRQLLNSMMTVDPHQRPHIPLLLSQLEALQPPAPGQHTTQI
EPHB1 (human), sequence (P54762 whole entry, looked up): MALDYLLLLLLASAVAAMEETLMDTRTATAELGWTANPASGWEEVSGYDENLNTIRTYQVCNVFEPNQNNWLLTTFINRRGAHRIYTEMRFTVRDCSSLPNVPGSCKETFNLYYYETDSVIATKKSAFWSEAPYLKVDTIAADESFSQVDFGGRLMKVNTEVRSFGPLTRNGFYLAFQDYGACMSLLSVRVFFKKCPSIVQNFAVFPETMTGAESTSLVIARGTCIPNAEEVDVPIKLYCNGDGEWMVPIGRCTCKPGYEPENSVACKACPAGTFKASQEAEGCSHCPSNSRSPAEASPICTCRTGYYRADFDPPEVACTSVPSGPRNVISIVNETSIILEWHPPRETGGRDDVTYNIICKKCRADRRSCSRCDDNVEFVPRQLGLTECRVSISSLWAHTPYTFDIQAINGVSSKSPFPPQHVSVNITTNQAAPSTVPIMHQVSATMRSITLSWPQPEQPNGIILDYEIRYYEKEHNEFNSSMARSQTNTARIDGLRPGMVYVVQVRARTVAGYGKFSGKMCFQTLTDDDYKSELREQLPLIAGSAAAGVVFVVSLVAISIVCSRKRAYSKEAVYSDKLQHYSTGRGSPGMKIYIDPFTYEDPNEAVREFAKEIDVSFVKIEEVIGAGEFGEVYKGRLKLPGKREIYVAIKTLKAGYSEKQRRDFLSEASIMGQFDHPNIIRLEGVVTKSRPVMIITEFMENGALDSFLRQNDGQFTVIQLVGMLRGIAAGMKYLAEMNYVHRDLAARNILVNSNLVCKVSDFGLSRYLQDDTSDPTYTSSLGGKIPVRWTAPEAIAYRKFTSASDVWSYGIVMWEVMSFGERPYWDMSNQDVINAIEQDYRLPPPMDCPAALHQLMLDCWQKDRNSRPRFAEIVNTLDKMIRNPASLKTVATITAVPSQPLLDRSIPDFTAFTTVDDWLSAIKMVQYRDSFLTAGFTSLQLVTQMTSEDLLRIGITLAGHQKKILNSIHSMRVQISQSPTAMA
STK24 (human), sequence (Q9Y6E0 whole entry, looked up): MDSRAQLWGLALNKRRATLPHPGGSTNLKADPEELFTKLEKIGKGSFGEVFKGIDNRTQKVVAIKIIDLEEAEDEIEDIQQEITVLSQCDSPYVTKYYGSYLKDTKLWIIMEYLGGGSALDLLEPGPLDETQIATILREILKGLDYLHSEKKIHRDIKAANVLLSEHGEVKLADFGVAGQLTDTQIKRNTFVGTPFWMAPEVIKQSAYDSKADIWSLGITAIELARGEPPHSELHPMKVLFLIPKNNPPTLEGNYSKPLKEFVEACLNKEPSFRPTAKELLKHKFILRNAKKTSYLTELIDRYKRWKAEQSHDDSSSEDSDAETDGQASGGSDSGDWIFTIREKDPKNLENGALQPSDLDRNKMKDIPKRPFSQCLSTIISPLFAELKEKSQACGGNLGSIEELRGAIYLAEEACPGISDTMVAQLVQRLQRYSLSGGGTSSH
MARK3 (human), sequence (P27448 whole entry, looked up): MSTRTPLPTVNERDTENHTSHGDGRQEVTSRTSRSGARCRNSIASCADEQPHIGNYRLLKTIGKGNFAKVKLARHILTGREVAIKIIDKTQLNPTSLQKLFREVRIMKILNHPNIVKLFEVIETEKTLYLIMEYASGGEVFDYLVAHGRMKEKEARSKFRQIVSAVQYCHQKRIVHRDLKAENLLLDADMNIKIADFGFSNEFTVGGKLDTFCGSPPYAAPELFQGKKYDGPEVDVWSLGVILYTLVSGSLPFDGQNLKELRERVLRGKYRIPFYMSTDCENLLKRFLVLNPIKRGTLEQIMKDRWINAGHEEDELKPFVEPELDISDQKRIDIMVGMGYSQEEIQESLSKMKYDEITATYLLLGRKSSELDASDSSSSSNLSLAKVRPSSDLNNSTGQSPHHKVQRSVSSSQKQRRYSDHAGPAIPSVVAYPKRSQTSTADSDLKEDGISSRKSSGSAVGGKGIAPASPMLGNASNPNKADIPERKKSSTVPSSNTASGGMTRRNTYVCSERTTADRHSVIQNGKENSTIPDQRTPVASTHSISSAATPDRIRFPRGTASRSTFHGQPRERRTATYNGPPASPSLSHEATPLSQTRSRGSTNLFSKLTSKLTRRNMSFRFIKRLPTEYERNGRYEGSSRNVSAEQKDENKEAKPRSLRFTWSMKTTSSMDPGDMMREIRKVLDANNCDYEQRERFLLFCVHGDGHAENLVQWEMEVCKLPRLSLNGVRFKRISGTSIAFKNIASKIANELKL
PAK3 (human), sequence (O75914 whole entry, looked up): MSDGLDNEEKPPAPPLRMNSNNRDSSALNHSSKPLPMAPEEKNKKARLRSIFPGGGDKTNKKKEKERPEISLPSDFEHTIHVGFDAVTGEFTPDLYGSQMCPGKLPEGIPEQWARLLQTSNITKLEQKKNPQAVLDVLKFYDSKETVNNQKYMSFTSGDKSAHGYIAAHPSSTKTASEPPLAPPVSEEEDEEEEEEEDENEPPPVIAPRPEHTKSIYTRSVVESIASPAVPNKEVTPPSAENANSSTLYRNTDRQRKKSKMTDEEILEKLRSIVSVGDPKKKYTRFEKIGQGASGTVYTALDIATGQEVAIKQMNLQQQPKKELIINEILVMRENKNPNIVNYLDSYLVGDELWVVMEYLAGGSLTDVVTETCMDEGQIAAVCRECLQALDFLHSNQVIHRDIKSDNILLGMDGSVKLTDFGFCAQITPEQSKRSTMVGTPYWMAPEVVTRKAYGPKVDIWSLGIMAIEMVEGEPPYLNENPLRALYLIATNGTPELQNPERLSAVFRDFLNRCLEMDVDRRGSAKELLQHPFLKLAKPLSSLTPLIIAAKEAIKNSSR

A residual activity (CDK4 CCND1 (human)) of 94.5%, a residual activity (CDK5 CDK5R1 p25 (human)) of 97.5% and a residual activity (MAPK13 (human)) of 95% were found for `CC[C@H](C)n1cc(C)c2c(C(=O)NCc3c(C)cc(C)[nH]c3=O)cc(-c3ccc(N4CCNCC4)nc3)cc21` in this work. The residual activity (MKNK1 (human)) was 97%, the residual activity (GRK6 (human)) was 104% and the residual activity (LYN (human)) was 104%. The residual activity (DYRK1A (human)) was 95%, the residual activity (ABL1 (human)) was 84% and the residual activity (EPHB1 (human)) was 90.5%. It also gave a residual activity (MARK4 (human)) of 83%, a residual activity (EPHA7 (human)) of 91.5% and a residual activity (GRK7 (human)) of 97.5%. It also gave a residual activity (MUSK (human)) of 104%, a residual activity (EPHA4 (human)) of 92% and a residual activity (FLT3 (human)) of 87.5%. It also gave a residual activity (MARK2 (human)) of 92.5%, a residual activity (PLK2 (human)) of 93.5% and a residual activity (PRKCB1 (human)) of 102%. The residual activity (AXL (human)) was 103%, the residual activity (MST1R (human)) was 97% and the residual activity (PDPK1 (human)) was 100%. The residual activity (MAP3K3 (human)) was 107%, the residual activity (PRKACA (human)) was 102% and the residual activity (PIM3 (human)) was 93.5%. The residual activity (PAK3 (human)) was 93.5%, the residual activity (FGFR1 (human)) was 84.5% and the residual activity (SYK (human)) was 89%. For the same compound, the residual activity (GRK5 (human)) was 101%, the residual activity (SIK2 (human)) was 108% and the residual activity (SGK2 (human)) was 105%. For the same compound, the residual activity (SGK1 (human)) was 99%, the residual activity (PRKCZ (human)) was 99.5% and the residual activity (CSNK1E (human)) was 94.5%. It also gave a residual activity (VRK1 (human)) of 101%, a residual activity (MST4 (human)) of 98% and a residual activity (STK24 (human)) of 82%. It also gave a residual activity (MARK3 (human)) of 110%, a residual activity (CDK9 CCNK (human)) of 96.5% and a residual activity (ALK (human)) of 91.5%. The residual activity (HIPK4 (human)) was 88%, the residual activity (CSNK2A2 (human)) was 76.5% and the residual activity (MYO3B (human)) was 92%. The residual activity (STK16 (human)) was 102% and the residual activity (CSNK1G3 (human)) was 98%.
